According to PubChem BioAssay (NCI):
Values joined by “and” are separate entries in the source; they are usually repeats but may differ in a detail not shown here. Equal entries are not always repeated.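 The compound was tested at five concentrations on cells cultured in 96-well plates, with a 48-hour exposure period. GI50 marks 50% less growth. TGI is the concentration that stops growth completely.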

Key:
Assay in all cases: NCI tumour cell line growth inhibition, 48 h
OVCAR-8 ovarian = system: OVCAR-8 ovarian
SF-268 CNS = system: SF-268 CNS
SNB-19 CNS = system: SNB-19 CNS
LXFL 529 NSCLC = system: LXFL 529 NSCLC
NCI-H522 lung = system: NCI-H522 lung
RXF-631 renal = system: RXF-631 renal
HT29 colon = system: HT29 colon
DMS 114 small cell lung = system: DMS 114 small cell lung
SK-MEL-2 melanoma = system: SK-MEL-2 melanoma
RPMI-8226 leukemia = system: RPMI-8226 leukemia
DU-145 prostate = system: DU-145 prostate

Row | SMILES | TGI (OVCAR-8 ovarian) | TGI (SF-268 CNS) [µM] | TGI (SNB-19 CNS) | TGI (LXFL 529 NSCLC) [µM] | TGI (NCI-H522 lung) | TGI (RXF-631 renal) [µM] | TGI (HT29 colon) | TGI (DMS 114 small cell lung) [µM] | TGI (SK-MEL-2 melanoma) [µM] | GI50 (OVCAR-8 ovarian) | GI50 (SF-268 CNS) [µM] | GI50 (SNB-19 CNS) | GI50 (RPMI-8226 leukemia) | TGI (RPMI-8226 leukemia) | GI50 (NCI-H522 lung) | GI50 (HT29 colon) | GI50 (DMS 114 small cell lung) [µM] | GI50 (SK-MEL-2 melanoma) [µM] | GI50 (DU-145 prostate) | TGI (DU-145 prostate)
1 | Cc1nc2c(=O)n(C)c(=O)nc-2n(-c2ccc(Cl)cc2)c1C | > 100 µM | > 100 | > 100 µM | > 100 | > 100 µM | > 100 | > 100 µM | > 100 | > 100 | – | – | – | – | – | – | – | – | – | – | –
2 | C[CH2][Ge]1([CH2]C)[CH2]CC2(CCN(CCCN(C)C)C2)C[CH2]1 | 4.05 µM and 1.73 µM | 3.96 | 5.57 µM and 9.89 µM | – | 2.88 µM and 24.4 µM | – | 1.59 µM and 6.05 µM | 3.88 | 1.32 | 1.7 µM and 1.25 µM | 1.81 | 2.21 µM and 4.46 µM | 0.234 µM and 1.47 µM | 0.976 µM and 2.52 µM | 1.3 µM and 11.2 µM | 0.4 µM and 2.24 µM | 2.11 | 0.616 | 2.48 µM and 3.09 µM | 6.64 µM and 8.84 µM
3 | COc1cc(C2C3=C(COC3=O)N(CCO)c3cc4c(cc32)CCC4)cc(OC)c1OC (stereo not given) | > 32.5 µM | – | 6.38 µM | – | 0.212 µM | – | – | – | > 9.09 | 0.118 µM | 0.0934 | 0.0946 µM | 0.135 µM | > 12.2 µM | 0.041 µM | 0.0975 µM | – | 0.146 | 0.0787 µM | 0.214 µM
4 | COc1ccc(/C=C2\CC(C)CC3C2=NN(C(C)=O)C3c2ccc(OC)c(OC)c2)cc1OC (stereo not given) | > 100 µM | 31.8 | 39.4 µM | – | 40.4 µM | – | > 100 µM | – | 30 | 23.5 µM | 14.6 | 17.7 µM | 8.19 µM | 32 µM | 14.5 µM | 22.4 µM | – | 15.4 | 19.7 µM | 47.8 µM
5 | Cn1c([N+](=O)[O-])cnc1/C=C1\Oc2ccc(Cl)cc2C1=O | – | 1.45 | 6.95 µM | – | 2.19 µM | – | 0.757 µM | – | 3.04 | 0.33 µM | 0.339 | 1.77 µM | 0.985 µM | 5.58 µM | 0.528 µM | 0.254 µM | – | 0.901 | 0.402 µM | 1.32 µM
6 | Cc1nn(-c2ccccc2)c2ncc3c(c12)C(=O)N(Cc1ccccc1)C3=O | > 100 µM | 66.5 | > 100 µM | – | > 100 µM | – | > 100 µM | – | 31.5 | 5.14 µM | 7.66 | 12.7 µM | 3.61 µM | 31.8 µM | 19.8 µM | > 100 µM | – | 13.7 | 72.2 µM | > 100 µM
7 | Nc1cc2[nH]c(=O)c3cc(Cl)ccc3c2cc1Cl | 13.5 µM | 45.4 | 37.2 µM | – | 33 µM | – | > 100 µM | – | > 100 | – | – | – | – | > 100 µM | – | – | – | – | – | 39.1 µM
8 | COc1ccc(C2CC(c3ccc(OC)c(OC)c3)=NN2C(=O)c2cc(OC)c(OC)c(OC)c2)cc1 (stereo not given) | > 100 µM | > 100 | > 100 µM | – | – | – | > 100 µM | – | > 100 | 3.96 µM | 5.06 | 4.67 µM | 4.27 µM | > 100 µM | 0.56 µM | 3.07 µM | – | 3.87 | 3.79 µM | > 100 µM
9 | O=C1[C@@H]2C3C=CC([C@H]4C(=O)N(CO)C(=O)[C@@H]34)[C@@H]2C(=O)N1CO | 97.6 µM | > 77.7 | > 100 µM | > 100 | > 56.5 µM | – | > 100 µM | > 62.2 | > 100 | – | – | – | – | 49.5 µM | – | – | – | – | – | –
10 | CC(C)(O)C1CC(=O)C(C)(C2C(O)CC3(C)C4CC=C5C(CCC(O)C5(C)C)C4(C)C(=O)CC23C)O1 (stereo not given) | > 100 µM | > 100 | > 100 µM | – | > 100 µM | – | > 100 µM | – | > 100 | – | – | – | – | > 100 µM | – | – | – | – | – | > 100 µM
11 | Cc1ccc(S(=O)(=O)NC2(C=O)CCC(C(C)(C)C)CC2)cc1 (stereo not given) | > 100 µM | > 100 | > 100 µM | > 100 | 54.9 µM | > 100 | > 100 µM | 62.8 | > 100 | – | – | – | – | 46.3 µM | – | – | – | – | – | –
12 | COc1c(C)cnc(Cn2cnc3c(Cl)nc(N)nc32)c1C | > 100 µM | > 100 | > 100 µM | – | 12.9 µM | – | > 100 µM | – | > 59.5 | 0.323 µM | 0.708 | 0.48 µM | 0.333 µM | > 100 µM | 0.261 µM | 0.0654 µM | – | 0.434 | 0.0701 µM | > 100 µM
13 | CCCCc1ccc(C(N)=O)nc1 | > 100 µM | > 100 | > 100 µM | – | > 100 µM | – | > 100 µM | – | > 100 | > 100 µM | > 100 | > 100 µM | > 100 µM | > 100 µM | > 100 µM | > 100 µM | – | > 100 | > 100 µM | > 100 µM
14 | CN1CCN(Cc2ccc(NC(=O)c3cncc(C#Cc4c(N)ncc5ccc(F)cc45)c3)cc2C(F)(F)F)CC1 | 8.03 µM | 2.43 | 12 µM | – | 11.5 µM | – | 0.789 µM | – | 2.55 | 1.76 µM | 0.783 | 3.47 µM | 0.757 µM | 3.87 µM | 1.75 µM | 0.126 µM | – | 0.479 | 1.45 µM | 7.02 µM
15 | CCCCCC1C2C(=O)NC(=O)C1C(=O)NC2=O (stereo not given) | > 100 µM | > 100 | > 100 µM | > 100 | > 100 µM | – | > 100 µM | > 100 | > 100 | – | – | – | – | > 100 µM | – | – | – | – | – | –
